Laboratory results: publication PMC5974752, “Bax/Tubulin/Epithelial-Mesenchymal Pathways Determine the Efficacy of Silybin Analog HM015k in Colorectal Cancer Cell Growth and Metastasis” (Frontiers in Pharmacology, 2018)

Experiments:
Assay type in all cases: cell-based, human
[1] = test system: Bax (p21 and p18); experiment: Western blot in HCT116 cells; settings: 4 μM, overnight, p < 0.001
Description: (§1) HCT116 cells were lysed to obtain cytoplasmic and nuclear protein fractions, according to the protocol used in previous publications (Alhadidi and Shah, [2017]). Briefly, the cells were seeded in and incubated with 15k for overnight at 4μM. The cells were washed using ice-cold PBS and scraped using a cell scraper and collected in 15ml tubes. The cells were centrifuged and the PBS was discarded and replaced with 400 μl of buffer A (10 mM HEPES, pH 7.9, 0.1 mM EDTA, 0.1 mM EGTA, 10 mM KCl, 1 mM dithiothreitol, and 0.5 mM phenylmethylsulfonyl fluoride) in each tube. The cells were allowed to swell under in the buffer for 15 min on ice. Subsequently, 0.1% Nonidet P-40 was added to each suspension for 1 min to disturb the plasma membrane. The nuclei were precipitated by centrifugation at 13,000 rpm for 1 min at 4°C. The cytoplasmic proteins were collected in the supernatant and stored at −80°C. Two hundred μl of Buffer B (20 mM HEPES, pH 7.9, 1 mM EDTA, 1 mM EGTA, 400 mM NaCl, 1 mM dithiothreitol, and 1 mM phenylmethylsulfonyl fluoride) was added to the pellets and left for 30 min on ice with periodic mixing. The samples were centrifuged at 13,000 rpm for 15 min at 4°C to obtain the nuclear fraction (supernatant). The bicinchoninic acid (BCA) quantification assay was used to determine the concentration of protein in the cell extracts. The Western blot was done as previously described (Tiwari et al., [2013]). Rabbit α-tubulin, 1:4,000 dilution, rabbit Bax (1:1,000), rabbit BAK (1:1,000), rabbit β-Catenin (1:4,000), rabbit DVL3 (1:4,000), mouse β-actin (1:5,000), E-cadherin (1:4,000), and N-cadherin (1:4,000), antibodies were used. Membranes were then washed and incubated for 1 h with horseradish peroxidase-labeled (HRP) anti-rabbit and anti-mouse secondary antibodies (1:5,000 dilutions). ChemiDoc Imaging Systems from Bio-Rad, (Hercules, California USA) was used to detect the blots. Finally, proteins were quantified using the image J software. Data were calculated as ratios to β-actin.

[2] = test system: DVL3; experiment: Western blot in HCT116 cells; settings: 4 μM, p < 0.01 vs vehicle
Description: as §1

[3] = test system: Bcl-2; experiment: Western blot in HCT116 cells; settings: 4 μM, overnight, p < 0.05
Description: as §1

[4] = test system: c-Myc; experiment: Western blot in HCT116 cells; settings: 4 μM, p < 0.01 vs control
Description: as §1

[5] = test system: cyclin B1; experiment: Western blot in HCT116 cells; settings: 4 μM, p < 0.01
Description: as §1

[6] = test system: Bak; experiment: Western blot in HCT116 cells; settings: 4 μM, overnight
Description: as §1

[7] = test system: N-cadherin; experiment: Western blot in HCT116 cells; settings: 4 μM, p < 0.01 vs control
Description: as §1

[8] = test system: E-cadherin; experiment: Western blot in HCT116 cells; settings: 4 μM, overnight
Description: as §1

[9] = test system: caspase 3; experiment: Western blot in HCT116 cells; settings: 4 μM, p < 0.05 vs control
Description: as §1

[10] = test system: α-tubulin; experiment: Western blot in HCT116 cells; settings: 4 μM, overnight, p < 0.01 vs vehicle
Description: as §1

[11] = test system: LOVO cells; experiment: Wound healing assay; settings: 2 and 4 μM, 24 h and 48 h, vs vehicle
Description: In brief, the metastatic CRC cells (LOVO) were seeded in 6 well plates and allowed to grow as a monolayer until they reached 100% confluence. Upon confluence, 200 μl sterile tips were used to create a wound by gentle scratching of the complete cell monolayer. Sterile PBS was used to wash the cells several times to remove any floating cells. Different concentrations of the test compound were prepared in the culture media and added immediately after wound formation. The closure of the wound was observed by taking pictures at different time points by an EVOS microscope. Finally, the area of the wounds at different time points was calculated using Image J software (NIH, Bethesda, Maryland, USA).

[12] = test system: HCT116 cells; experiment: IncuCyte annexin V red real time apoptosis
Description: For real time quantification of apoptosis induction, the fluorescent Caspase 3/7 and Annexin V red reagents, with an excitation maximum of 500 and 593 nm and an emission maximum of 530 and 614 nm, respectively, were used. The HCT116 cells were seeded at a density of 1,000 cell/well and allowed to grow overnight. The next day, compound 15k at 0, 2, 4, and 8μM was prepared and added, directly followed by the caspase 3/7 reagent at final concentration of 5μM or annexin V red reagent in final dilution of 1: 200. The cells were then incubated in IncuCyte Zoom live cell imaging and pictures were taken every 2 h for up to 50 h and analyzed using the integrated software. The IncuCyte® Caspase-3/7 apoptosis assay reagent couples the activated caspase-3/7 recognition motif (DEVD) to NucView™ 488, a DNA intercalating dye to enable quantification of apoptosis over time. Caspase-3/7 assay reagent is non-perturbing to cell growth and morphology. When added to cell culture medium, this inert, non-fluorescent substrate crosses the cell membrane, where it is cleaved by activated caspase-3/7, resulting in the release of the DNA dye and green fluorescent staining of nuclear DNA.

O=C(/C=C/c1cccc(OCc2ccccc2)c1)c1ccc(O)cc1 [Compound 15k]
cleavage of Bax p21 to p18 [1]: induced the cleavage of the protein Bax (p 21)
levels of DVL3 [2]: significantly decreased
levels of Bcl-2 [3]: significantly decreased
levels of c-Myc protein [4]: significant decrease
expression levels of cyclin B1 [5]: significant increase
Bak levels [6]: no significant effect
level of N-cadherin [7]: significantly downregulated
E-cadherin expression (Western blot) [8]: not significantly altered
cleavage of total caspase 3 [9]: induced the cleavage of total caspase
expression of α-tubulin [10]: significant decrease
cell migration, wound closure [11]: migrated significantly slower
annexin V red fluorescence over time ([12]; 2, 4 or 8 μM, vs control): significantly increased annexin V red fluorescence
incubation time at which significant difference in annexin V fluorescence appeared ([12]; vehicle vs 15k): 12 h
